Results published in paper PMC2610413 (Bioorganic & medicinal chemistry letters, 2008).

Experiments:
[1] = system: EGFR (T790M); settings: cited from earlier work
[2] = molecular target: T1, Bmx (Homo sapiens, UniProt P51813); assay: Biochemical enzymatic kinase assay, Bmx
T1 sequence (P51813 1-675): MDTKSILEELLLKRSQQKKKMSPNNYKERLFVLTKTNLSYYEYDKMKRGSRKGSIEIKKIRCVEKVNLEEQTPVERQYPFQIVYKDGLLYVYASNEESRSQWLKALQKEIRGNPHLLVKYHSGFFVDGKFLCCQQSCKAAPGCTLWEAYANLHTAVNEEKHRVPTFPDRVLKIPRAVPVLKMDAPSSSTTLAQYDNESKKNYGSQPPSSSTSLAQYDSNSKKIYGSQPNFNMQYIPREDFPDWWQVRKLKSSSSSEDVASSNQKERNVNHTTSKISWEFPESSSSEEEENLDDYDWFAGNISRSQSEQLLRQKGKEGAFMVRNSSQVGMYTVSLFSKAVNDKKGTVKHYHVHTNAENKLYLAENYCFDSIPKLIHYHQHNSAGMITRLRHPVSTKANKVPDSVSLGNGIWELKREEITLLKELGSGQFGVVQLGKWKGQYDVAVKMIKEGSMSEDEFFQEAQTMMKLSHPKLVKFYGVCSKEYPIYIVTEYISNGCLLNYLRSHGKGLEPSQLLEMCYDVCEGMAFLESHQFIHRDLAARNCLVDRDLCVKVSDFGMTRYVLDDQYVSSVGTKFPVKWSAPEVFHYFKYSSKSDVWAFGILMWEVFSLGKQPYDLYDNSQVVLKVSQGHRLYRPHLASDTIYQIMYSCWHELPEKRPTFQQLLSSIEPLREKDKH

[3] = molecular target: Tel-wild-type Bmx transformed Ba/F3 cells (Homo sapiens, UniProt P51813); assay: Cytotoxicity assay, Tel-wild-type Bmx transformed Ba/F3 cells; type: cell-based; settings: cellular assay
Tel-wild-type Bmx transformed Ba/F3 cells, sequence (P41212 1-336 partner, one chain of several): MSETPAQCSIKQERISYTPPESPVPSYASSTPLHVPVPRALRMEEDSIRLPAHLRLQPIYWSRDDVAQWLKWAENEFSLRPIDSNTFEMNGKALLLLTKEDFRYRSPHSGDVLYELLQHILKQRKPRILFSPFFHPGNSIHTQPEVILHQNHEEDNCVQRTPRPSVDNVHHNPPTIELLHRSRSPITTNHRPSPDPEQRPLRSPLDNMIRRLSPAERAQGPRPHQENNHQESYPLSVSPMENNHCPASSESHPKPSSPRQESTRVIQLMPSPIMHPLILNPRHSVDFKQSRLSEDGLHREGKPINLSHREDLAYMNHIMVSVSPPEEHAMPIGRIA

[4] = molecular target: Bmx kinase domain (Homo sapiens, UniProt P51813); assay: Mass spectrometry of covalent modification of recombinant Bmx kinase domain; type: binding
[5] = system: Tel-tyrosine kinase (Blk) transformed Ba/F3 cells; assay: Cytotoxicity assay, Tel-Blk transformed Ba/F3 cells; settings: cellular assay
[6] = cited from earlier work
[7] = molecular target: Blk (Homo sapiens, UniProt P51451); assay: Biochemical enzymatic kinase assay, Blk
Blk, sequence (P51451 whole entry, species assumed): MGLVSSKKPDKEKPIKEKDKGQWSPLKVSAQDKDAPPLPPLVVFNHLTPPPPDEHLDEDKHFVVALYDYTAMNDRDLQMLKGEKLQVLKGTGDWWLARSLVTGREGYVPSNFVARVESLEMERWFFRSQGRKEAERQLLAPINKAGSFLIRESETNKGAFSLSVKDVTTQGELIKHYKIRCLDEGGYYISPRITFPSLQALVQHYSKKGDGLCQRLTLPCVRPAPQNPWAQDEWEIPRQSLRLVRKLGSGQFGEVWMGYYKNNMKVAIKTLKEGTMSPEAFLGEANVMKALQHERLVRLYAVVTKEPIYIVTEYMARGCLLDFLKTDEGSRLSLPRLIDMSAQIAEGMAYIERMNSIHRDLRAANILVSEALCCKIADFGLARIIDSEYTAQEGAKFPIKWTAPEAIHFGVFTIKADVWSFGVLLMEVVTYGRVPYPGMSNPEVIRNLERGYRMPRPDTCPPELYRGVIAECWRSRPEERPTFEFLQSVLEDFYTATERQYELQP

[8] = molecular target: T2, full-length Flag-Bmx (Homo sapiens, UniProt P51813); settings: 10 μM; immunoprecipitated Flag-Bmx pre-incubated with drug at 4°C for 2 hrs
T2 sequence (P51813 1-675): T1 sequence (P51813 1-675)

## CCOc1cc2ncc(C#N)c(Nc3ccc(F)c(Cl)c3)c2cc1NC(=O)/C=C/CN(C)C [EKB-569]
[1]
  inhibition of EGFR (T790M): strongly inhibit

## C=CC(=O)Nc1ccc2ncnc(Nc3cccc(Br)c3)c2c1 [PD168393]
[2]
  inhibitory activity against Bmx: only moderate potency
[3]
  inhibitory activity against Bmx: only moderate potency
[4]; chymotryptic peptide ISNGCLL, tandem MS
  site of modification: modification of cysteine 496
[4]; consistent with covalent addition of a single inhibitor molecule
  mass increase of Bmx kinase domain after incubation with inhibitor: 369 Da

## C=CC(=O)Nc1cc2c(Nc3ccc(F)c(Cl)c3)ncnc2cc1OCCCN1CCOCC1 [CI-1033]
[5]
  inhibitory activity against Blk: potent inhibitory activity
[6]
  toxicity in clinical phase II study: severe toxicity
[7]
  inhibitory activity against Blk: potent inhibitory activity

## C#Cc1cccc(Nc2ncnc3cc(OCCOC)c(OCCOC)cc23)c1 [erlotinib]
[8]
  in vitro autophosphorylation of Bmx (32P incorporation): not affected
